Measurements published in US12239636B2, “Combined sirolimus and nintedanib therapy for vascular lesions and hereditary hemorrhagic telangiectasia” (THE FEINSTEIN INSTITUTES FOR MEDICAL RESEARCH, priority 2018, dated 2025).
Like-named read-outs stand apart in the source and are kept apart here.

Assays:
[1] = tested on: tBMP9/10ib mice; assay: Prevention of retinal vascular pathology in tBMP9/10ib HHT mice (treatment P3-P5, analysis at P6)
Experimental: Mouse pups were administered preventively and daily with Siro from P3 to P5 (0.5 mg/kg, i.p.) and with Nin at P5 (0.3 mg/kg, i.p.). Mice were then analyzed at P6, a time point at which retinal vessel dilation, hypervascularization, and AVMs can readily be observed and quantified in this model.

[2] = molecular target: T1, VEGFR2 (Mus musculus, UniProt P35918); assay: phospho-VEGFR2 in liver ECs and retina of tBMP9/10ib mice; type: in vivo
T1 construct: protein homogenates of liver ECs isolated from tBMP9/10ib mice; from tissue; host or cells: liver endothelial cells and retina of tBMP9/10ib mice

[3] = molecular target: T2, VEGFR2 (Homo sapiens, UniProt P35968); assay: VEGF-induced VEGFR2 activation in primary ECs; type: cell-based
T2 construct: endogenous in cells; host or cells: primary ECs

[4] = LC-MS serum drug concentrations in injected pups
[5] = tested on: neonatal retina; assay: Dose finding: physiological retinal vascular development in pups; conditions: i.p. injection of pups, Nin every third day, not before P5
[6] = mouse, in vivo
[7] = tested on: tBMP9/10ib mice; conditions: 0.5 mg/kg, P3-P5, i.p.; Ruiz et al., 2017; cited from earlier work
[8] = tBMP9/10ib retinas at P6, Siro 0.5 mg/kg i.p. P3-P5, Nin 0.3 mg/kg i.p. at P5

T1 sequence (P35918 20-1345): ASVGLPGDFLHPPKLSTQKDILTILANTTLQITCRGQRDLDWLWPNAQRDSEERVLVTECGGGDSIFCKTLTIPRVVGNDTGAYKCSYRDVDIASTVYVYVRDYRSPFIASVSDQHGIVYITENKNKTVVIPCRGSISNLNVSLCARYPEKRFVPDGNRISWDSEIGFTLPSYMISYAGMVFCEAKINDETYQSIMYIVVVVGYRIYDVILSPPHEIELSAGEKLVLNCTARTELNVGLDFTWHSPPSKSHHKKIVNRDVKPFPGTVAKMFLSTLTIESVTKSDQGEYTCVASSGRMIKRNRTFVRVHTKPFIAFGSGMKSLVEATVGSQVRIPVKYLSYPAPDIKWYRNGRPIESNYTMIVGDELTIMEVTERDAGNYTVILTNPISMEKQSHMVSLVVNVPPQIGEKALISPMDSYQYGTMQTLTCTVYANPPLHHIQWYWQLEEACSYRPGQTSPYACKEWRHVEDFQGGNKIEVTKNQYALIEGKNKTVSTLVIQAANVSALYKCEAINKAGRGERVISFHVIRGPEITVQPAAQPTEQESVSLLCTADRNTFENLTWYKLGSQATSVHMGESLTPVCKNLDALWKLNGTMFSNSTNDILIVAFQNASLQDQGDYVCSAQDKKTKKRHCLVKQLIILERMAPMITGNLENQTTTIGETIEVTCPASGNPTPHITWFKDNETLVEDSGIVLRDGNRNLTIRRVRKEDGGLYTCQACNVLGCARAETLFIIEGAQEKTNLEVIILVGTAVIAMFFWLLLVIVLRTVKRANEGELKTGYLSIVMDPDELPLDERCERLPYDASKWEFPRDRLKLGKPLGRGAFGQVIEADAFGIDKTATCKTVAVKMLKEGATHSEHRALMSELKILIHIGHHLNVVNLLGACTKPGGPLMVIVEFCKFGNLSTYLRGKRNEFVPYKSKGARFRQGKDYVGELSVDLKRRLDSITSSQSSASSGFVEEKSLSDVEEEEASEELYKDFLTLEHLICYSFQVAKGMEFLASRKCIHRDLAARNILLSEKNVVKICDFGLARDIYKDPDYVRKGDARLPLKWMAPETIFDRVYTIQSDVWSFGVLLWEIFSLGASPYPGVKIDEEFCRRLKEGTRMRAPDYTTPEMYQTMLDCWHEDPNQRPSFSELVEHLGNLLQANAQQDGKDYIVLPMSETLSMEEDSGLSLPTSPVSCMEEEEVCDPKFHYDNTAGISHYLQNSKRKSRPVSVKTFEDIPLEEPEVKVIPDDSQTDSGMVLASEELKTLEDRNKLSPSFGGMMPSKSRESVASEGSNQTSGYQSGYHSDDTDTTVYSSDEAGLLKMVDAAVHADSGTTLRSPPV
T2 sequence (P35968 20-1356, species assumed): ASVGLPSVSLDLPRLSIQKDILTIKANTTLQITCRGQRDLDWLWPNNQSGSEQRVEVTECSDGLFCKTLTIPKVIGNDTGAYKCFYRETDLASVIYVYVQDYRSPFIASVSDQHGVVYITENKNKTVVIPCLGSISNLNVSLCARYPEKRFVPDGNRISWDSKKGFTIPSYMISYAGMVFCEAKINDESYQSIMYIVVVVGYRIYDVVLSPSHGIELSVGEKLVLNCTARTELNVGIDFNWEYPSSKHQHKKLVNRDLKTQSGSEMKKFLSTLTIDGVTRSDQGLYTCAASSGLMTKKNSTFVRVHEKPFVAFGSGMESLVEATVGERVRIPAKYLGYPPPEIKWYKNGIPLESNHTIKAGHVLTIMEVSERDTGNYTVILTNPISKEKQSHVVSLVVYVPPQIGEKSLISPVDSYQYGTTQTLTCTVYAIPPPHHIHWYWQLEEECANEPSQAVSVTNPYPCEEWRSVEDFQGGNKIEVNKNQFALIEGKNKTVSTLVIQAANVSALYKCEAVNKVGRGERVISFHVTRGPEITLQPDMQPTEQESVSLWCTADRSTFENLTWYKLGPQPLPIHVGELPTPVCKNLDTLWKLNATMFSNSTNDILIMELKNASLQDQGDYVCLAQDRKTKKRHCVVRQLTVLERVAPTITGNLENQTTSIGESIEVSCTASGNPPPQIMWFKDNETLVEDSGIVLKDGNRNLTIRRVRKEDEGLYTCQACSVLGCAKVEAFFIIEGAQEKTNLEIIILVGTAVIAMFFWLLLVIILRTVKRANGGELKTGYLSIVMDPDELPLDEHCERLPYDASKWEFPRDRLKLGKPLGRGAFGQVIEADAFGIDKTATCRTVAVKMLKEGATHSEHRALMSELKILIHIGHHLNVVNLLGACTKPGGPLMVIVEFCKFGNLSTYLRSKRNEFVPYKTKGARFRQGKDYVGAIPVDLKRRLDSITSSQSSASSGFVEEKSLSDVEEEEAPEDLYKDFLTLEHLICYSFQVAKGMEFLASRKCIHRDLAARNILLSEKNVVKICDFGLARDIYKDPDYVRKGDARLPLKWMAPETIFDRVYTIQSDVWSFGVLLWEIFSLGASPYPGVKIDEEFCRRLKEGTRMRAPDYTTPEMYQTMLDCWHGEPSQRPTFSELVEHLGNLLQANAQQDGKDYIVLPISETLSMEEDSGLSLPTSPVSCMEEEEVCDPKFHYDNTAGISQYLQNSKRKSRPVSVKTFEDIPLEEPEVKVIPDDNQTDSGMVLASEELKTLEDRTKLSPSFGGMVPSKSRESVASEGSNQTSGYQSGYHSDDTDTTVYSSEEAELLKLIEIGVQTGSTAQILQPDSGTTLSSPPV

| Compound | vascular pathology ([1]; HHT mice, sirolimus 0.5 mg/kg/day, nintedanib 0.3 mg/kg/day, alone or combined) | AVM diameter [1, 8] | increase in density of the vascular plexus [1, 8] | vein dilation [1, 8] | AVM number ([1]; tBMP9/10ib retinas at P6, Siro 0.5 mg/kg i.p. P3-P5, Nin 0.3 mg/kg i.p. at P5, mean) | elevation of activated phospho-VEGFR2 (p-VEGFR2) [2] | VEGF-induced VEGFR2 activation [3] | average serum concentration ([4]; injected P6 pups, Siro 0.5 mg/kg i.p., Nin 0.3 mg/kg i.p.) [nM] | average serum concentration ([4]; pup serum at P9, three additional days of treatment) [nM] | highest dose that did not affect normal vascular development [5] [mg/kg] | average serum concentration [6] [nM] | increase in density of the vascular plexus [7] | vein dilation [7] |
| --- | --- | --- | --- | --- | --- | --- | --- | --- | --- | --- | --- | --- | --- |
| COC(=O)c1ccc2c(c1)NC(=O)/C2=C(\Nc1ccc(N(C)C(=O)CN2CCN(C)CC2)cc1)c1ccccc1 [Nin, nintedanib] | moderate-to-negligible effect | failed to reduce | failed to reduce | failed to reduce | failed to reduce | significantly inhibited | fully inhibited | 5.3 | 24.7 | 0.3 | – | – | – |
| CO[C@H]1C[C@@H]2CC[C@@H](C)[C@@](O)(O2)C(=O)C(=O)N2CCCC[C@H]2C(=O)O[C@H]([C@H](C)C[C@@H]2CC[C@@H](O)[C@H](OC)C2)CC(=O)[C@H](C)/C=C(\C)[C@@H](O)[C@@H](OC)C(=O)[C@H](C)C[C@H](C)/C=C/C=C/C=C/1C [Siro, sirolimus] | – | – | – | – | – | – | – | – | – | 0.5 | 22.6 | – | – |
| C=CC[C@@H]1/C=C(\C)C[C@H](C)C[C@H](OC)[C@H]2O[C@@](O)(C(=O)C(=O)N3CCCC[C@H]3C(=O)O[C@H](/C(C)=C/[C@@H]3CC[C@@H](O)[C@H](OC)C3)[C@H](C)[C@@H](O)CC1=O)[C@H](C)C[C@@H]2OC [Tac, tacrolimus] | – | – | – | – | – | – | – | – | – | – | – | prevented | prevented |
